How the values were obtained:
male mice of ICR strain = assay: Subacute toxicity test (repetitive oral administration for 14 days); assay type: in vivo; design: key to ALT (alanine aminotransferase), significance vs solvent-treated control: −: no significant differences (Student's t-test); +: p < 0.05 (Student's t-test); ++: p < 0.01 (Student's t-test); conditions: for ALT (alanine aminotransferase) vs vehicle-treated control group (in words) / AST (aspartate aminotransferase) vs vehicle-treated control group / BUN (blood urea nitrogen) vs vehicle-treated control group / wet-weights of various organs such as liver, spleen vs vehicle-treated control group / change in the body weight during the test vs vehicle-treated control group: 14 days oral; for ALT (alanine aminotransferase) vs vehicle-treated control group (in words) / AST (aspartate aminotransferase) vs vehicle-treated control group: parameter for liver dysfunction; for BUN (blood urea nitrogen) vs vehicle-treated control group: parameter for renal dysfunction; for wet-weights of various organs such as liver, spleen vs vehicle-treated control group: weight per body; for ALT (alanine aminotransferase), significance vs solvent-treated control: blood plasma; for ALT (alanine aminotransferase), significance vs solvent-treated control / Other remarks: male ICR mice; for change in the body weight during the test vs vehicle-treated control group: even at a high dose of 300 mg/kg; for Other remarks: remarks observed during the 14-day oral test
Protocol: Subacute toxicity test was carried out by repetitive administration of a test compound to mice for 14 days. That is, a test compound was orally administered to male mice of ICR strain once a day for 14 days. On the day following the final administration, the mice were anesthetized with Nembutal, and the blood was taken out therefrom, and further various organs were taken out. The wet-weight of each organ was determined, and was converted into a weight per body, and then compared. The blood plasma was subjected to various biochemical tests, mainly to tests for parameters for liver function and renal function. The results of these tests were statistically compared with those in the solvent-treated control group. The data of the biochemical tests, for example, ALT (alanine aminotransferase) as a parameter for liver dysfunction and other remarks observed during the test (see the column of “other remarks” in Table 3) are shown in Table 3.

[1] = tested on: collagen-induced arthritis; assay: Collagen-induced arthritis inhibitory test; assay type: in vivo, mice; conditions: for Inhibitory rate: score of arthritis on the 52nd day after the first immunization vs control group, male DBA/IJ mice
Protocol: Collagen-induced arthritis inhibitory test is an experimental model for rheumatoid arthritis reported by Trethan, D. E. et al. [cf. […] J. Immunol., 140, 78-83 (1988)].
Collagen-induced arthritis inhibitory test was carried out according to the method of Kakimoto, K. et al. (cf. above reference of Kakimoto, K. et al.) with slight modification. That is, solubilized bovine cartilage type II collagen (product of Elastine Products, U.S.A.) was emulsified in complete Freund's adjuvant (product of DIFCO Lab., U.S.A.) to give a homogeneous emulsion. Male mice of DBA/IJ strain (6 week-old; product of Nippon Charles River, Japan) were immunized by injection at the base of the tail with 150 μg of the emulsified collagen. Twenty one days after the first immunization, arthritis was induced by a booster immunization of 150 μg of the emulsified collagen prepared in the same manner as above at the base of the tail again. A test compound was orally administered 5 days a week except for Saturdays and Sundays, which was started on the day of the first immunization and continued until the termination of the experiment. Mice were daily observed since the 8th day after the booster immunization for the onset of arthritis, and an arthritic score was derived by grading the severity of involvement of each paw five scales according to the method of Wood, F. D. et al. [cf. Int. Arch. Allergy Appl. The severity of arthritis was estimated by the sum of the scores of all 4 paws of both forepaws and both hind paws, and the onset of the disease was considered when score 1 was observed.
The inhibitory rate was obtained by comparing the score of arthritis on the 52nd day after the first immunization with that of the control group.

[2] = dose 100 mg/kg orally once a day for 14 days
[3] = dose 200 mg/kg orally once a day for 14 days
[4] = dose 300 mg/kg orally once a day for 14 days

SMILES	ALT (alanine aminotransferase) vs vehicle-treated control group (in words) (male mice of ICR strain)	AST (aspartate aminotransferase) vs vehicle-treated control group (male mice of ICR strain)	BUN (blood urea nitrogen) vs vehicle-treated control group (male mice of ICR strain)	wet-weights of various organs such as liver, spleen vs vehicle-treated control group (male mice of ICR strain)	ALT (alanine aminotransferase), significance vs solvent-treated control (male mice of ICR strain; [2])	ALT (alanine aminotransferase), significance vs solvent-treated control (male mice of ICR strain; [3])	ALT (alanine aminotransferase), significance vs solvent-treated control (male mice of ICR strain; [4])	change in the body weight during the test vs vehicle-treated control group (male mice of ICR strain)	Other remarks (male mice of ICR strain)	Inhibitory rate ([1]; dose 0.3 mg/kg orally)	Inhibitory rate ([1]; dose 10 mg/kg orally)	effect on the above parameters (body weight, organ weights, ALT, AST, BUN) (male mice of ICR strain; dose 100 mg/kg)	effect on the liver (male mice of ICR strain; high dose of 300 mg/kg)	inhibitory effects (in words) ([1]; dose 3 mg/kg)	Inhibitory rate ([1]; dose 3 mg/kg orally)	side effect on liver and kidney (male mice of ICR strain; dose 100 mg/kg)	Inhibitory rate ([1]; dose 1 mg/kg orally)	anti-rheumatoid activity compared with Examples 1 and 2 ([1]; dose 3 mg/kg or less)	anti-rheumatoid activity compared with Examples 1 and 2 ([1]; dose 10 mg/kg)
CN(C)C(=O)CNc1nc(-c2ccc(C(F)(F)F)cc2)nc(-c2ccccc2)c1Cl [Example 1, 2-[5-chloro-6-phenyl-2-(4-trifluoromethylphenyl)-4-pyrimidinylamino]-N,N-dimethylacetamide]	not significantly different	not significantly different	not significantly different	not significantly different	−	−	−	not significantly different	no particular remark	20.0%	96.0%								
CN(C(=O)CNc1nc(-c2ccc(C(F)(F)F)cc2)nc(-c2ccccc2)c1Cl)C1CC1 [Example 2, 2-[5-chloro-6-phenyl-2-(4-trifluoromethylphenyl)-4-pyrimidinylamino]-N-cyclopropyl-N-methylacetamide]	not significantly different	not significantly different	not significantly different	not significantly different	−	−	−	not significantly different	no particular remark	29.1%	96.6%								
CCCN(CCC)C(=O)CNc1nc(-c2ccc(C(F)(F)F)cc2)nc(C)c1C [Reference Example A, 2-[5,6-dimethyl-2-(4-trifluoro-methylphenyl)-4-pyrimidinylamino]-N,N-dipropylacetamide, reference compound]					−	−	+ (p < 0.05 (Student's t-test))		no particular remark		73.2%	did not affect	did affect the liver in some degree	hardly showed any inhibitory effects	15.5%				
Cc1nc(-c2ccc(C(F)(F)F)cc2)nc(NCC(=O)N(C)C)c1C [Reference Example B, 2-[5,6-dimethyl-2-(4-trifluoro-methylphenyl)-4-pyrimidinylamino]-N,N-dimethylacetamide]					++ (p < 0.01 (Student's t-test))				peritoneal fluid, renal damage	0.0%	97.6%				63.9%	potent side effect on liver and kidney	41.8%	weaker than the compounds of Example 1 and Example 2	as potent as the compounds of Example 1 and Example 2

Reference: patent US6620817B1, “[5-CHLORO-6-PHENYL-2-(4-TRIFLUOROMETHYLPHENYL)-4-PYRIMIDINYLAMINO]ACETAMIDE DERIVATIVES, PROCESS FOR PRODUCING THE SAME, MEDICINAL COMPOSITIONS CONTAINING THE SAME AND INTERMEDIATE OF THESE COMPOUNDS” (Dainippon Pharmaceutical Co., Ltd., priority 1999, dated 2003)
